# Experimental data taken from patent publication US20240067733A1, “COMPOSITIONS AND METHODS FOR TARGETING AND KILLING ALPHA-V BETA-3-POSITIVE CANCER STEM CELLS (CSCS) AND TREATING DRUG RESISTANT CANCERS” (THE REGENTS OF THE UNIVERSITY OF CALIFORNIA, priority 2017, published 2024).
# B1: etaracizumab: a humanized and affinity-matured form of LM609 (antibody, chains of the INN, looked up, V domains shown)
# VH: QVQLVESGGGVVQPGRSLRLSCAASGFTFSSYDMSWVRQAPGKGLEWVAKVSSGGGSTYYLDTVQGRFTISRDNSKNTLYLQMNSLRAEDTAVYYCARHLHGSFASWGQGTTVTVSS
# VL: EIVLTQSPATLSLSPGERATLSCQASQSISNFLHWYQQRPGQAPRLLIRYRSQSISGIPARFSGSGSGTDFTLTISSLEPEDFAVYYCQQSGSWPLTFGGGTKVEIK
# Tests used:
# [1] = tested on: PC9 (β3−) subcutaneous xenograft; assay: PC9 subcutaneous xenograft treated with erlotinib; assay type: in vivo, mice; details: erlotinib n=1 vs vehicle n=1, measured weekly
# HCC827 (β3−) xenograft = assay: Erlotinib resistant lung adenocarcinoma xenograft model (HCC827 subcutaneous); details: erlotinib-resistant tumors vs vehicle group
# Protocol: Briefly, HCC827 (5×10^6 tumor cells in 100 μl of RPMI) cells were subcutaneously injected to the right flank of female nu/nu mice (8-10 weeks old). Tumors were measured twice per week with calipers (tumor volume (mm 3)=length×width×width/2). […] Tumor tissues were divided into three pieces for snap freezing, freezing in OCT compound (VWR, 25608-930), or 10% formalin fixation (Fisher Scientific, 23-313095) for further analyses.
# Immunohistochemical staining was performed on unstained FFPE slides according to the manufacturers recommendations for the VECTASTAIN Elite ABC HRP Kit (Vector Laboratories, PK-6100). An anti-integrin β3 antibody (Cell Signaling, 13166, 1:200) and a biotinylated goat anti-rabbit antibody (Vector Laboratories, BA-1000, 1:200) were used. The stained tissues were imaged on NanoZoomer Slide Scanning System™ (Hamamatsu), and the β3-positive area fraction with respect to tumor tissue was calculated utilizing ImageJ (MH) (5).
# [2] = tested on: HCC827 (β3−, GFP+, luciferase+) cells; assay: Orthotopic lung adenocarcinoma model and CTC isolation; assay type: in vivo, nu/nu mice
# Protocol: The pre-treatment group mice were sacrificed in week 8 for CTC analysis. […] Whole blood (0.5 mL/mouse) was collected in EDTA tubes, and PBMCs including CTCs were isolated using Lymphoprep™ ([…] Technologies, 85415) and SepMate™ ([…] Technologies, 07801) following the manufacturer's protocol. Isolated cells were washed with PBS, plated on poly-L-Lysine (Sigma, P1399) coated 8-well chamber plates, fixed with 4% PFA (VWR, AA43368-9M), and stained with DAPI (Life Technologies, D1306, 1 μg/mL in 1% BSA in PBS), LM609 (5 μg/mL in 1% BSA in PBS), and a fluorescently-labeled secondary antibody (Thermo, A21235, 1:500). The cells were analyzed utilizing Nikon Eclipse C2™ confocal microscope (Nikon). CTCs were defined as DAPI and GFP double positive cells. The numbers of αvβ3-positive and -negative CTCs per mouse were counted. After sacrificing the mice, the tumor mass volume in the lungs were also measured utilizing an OV100™ fluorescence imaging system (Olympus).
# [3] = tested on: tumor-associated macrophages (TAMs); assay: Quantification of TAMs in xenograft tumor tissues; assay type: in vivo, nu/nu mice; details: erlotinib vs vehicle, after 50 days of treatment
# Protocol: TAMs were isolated from tumor tissues as previously described (4). Snap frozen tumor tissues were thawed, minced, and dissociated in HBSS containing collagenase IV (Sigma, C5138, 0.5 mg/mL), hyaluronidase (Sigma, H2654, 0.1 mg/mL), dispase 11 (Roche, 04942078001, 0.6 U/mL), and DNase IV (Millipore, 260913-10MU, 5 U/mL) at 37° C. for 15 minutes. Cell suspensions were filtered through 70 μm cell strainer and washed with PBS. Single cell suspensions (10^6 cells/100 μL in 5% BSA in PBS) were incubated with Mouse BD Fc Block™ (BD Biosciences, 553142, 1:50) for 10 minutes at 4° C. and fluorescently labeled antibodies, CD11b (eBioscience, 17-0112-81, 1:100), Ly-6G (eBioscience, 25-5931, 1:100), CD206 (BioRad, MCA2235PET), and MHC11 (BD Biosciences, 562928) for one hour at 4° C. Flow cytometry was performed on BD LSRFortessa™, and the ratio of TAMs (CD11b-positive, Ly-6G-negative), M1 (CD206-negative, MHC11-positive within TAMs), and M2 (non-M1 population within TAMs) in the tumor tissue was calculated using the flow cytometry analysis program FlowJo™ (Treestar).
# PC9 ErlR cells = details: cells from erlotinib treated (ErlR) vs vehicle treated animal
# Protocol: (§1) Cells were plated in 96-well plates, and after appropriate treatments, the cells were incubated in MTT solution (Sigma, M2128, 0.5 mg/mL in growth media) for two hours at 37° C. Then, the MTT solution was removed, and the blue crystalline precipitate in each well was dissolved in DMSO. Visible absorbance of each well at 560 nm was quantified using a microplate reader.
# HCC827-ErlR = tested on: HCC827-ErlR
# Protocol: as §1
# integrin αvβ3 = integrin αvβ3 (Homo sapiens, UniProt P05106+P06756); details: in vitro; cited from earlier work
# solid tumors = details: patients with solid tumors; cited from earlier work
# Chain of integrin αvβ3 (P06756 31-889 limits assumed): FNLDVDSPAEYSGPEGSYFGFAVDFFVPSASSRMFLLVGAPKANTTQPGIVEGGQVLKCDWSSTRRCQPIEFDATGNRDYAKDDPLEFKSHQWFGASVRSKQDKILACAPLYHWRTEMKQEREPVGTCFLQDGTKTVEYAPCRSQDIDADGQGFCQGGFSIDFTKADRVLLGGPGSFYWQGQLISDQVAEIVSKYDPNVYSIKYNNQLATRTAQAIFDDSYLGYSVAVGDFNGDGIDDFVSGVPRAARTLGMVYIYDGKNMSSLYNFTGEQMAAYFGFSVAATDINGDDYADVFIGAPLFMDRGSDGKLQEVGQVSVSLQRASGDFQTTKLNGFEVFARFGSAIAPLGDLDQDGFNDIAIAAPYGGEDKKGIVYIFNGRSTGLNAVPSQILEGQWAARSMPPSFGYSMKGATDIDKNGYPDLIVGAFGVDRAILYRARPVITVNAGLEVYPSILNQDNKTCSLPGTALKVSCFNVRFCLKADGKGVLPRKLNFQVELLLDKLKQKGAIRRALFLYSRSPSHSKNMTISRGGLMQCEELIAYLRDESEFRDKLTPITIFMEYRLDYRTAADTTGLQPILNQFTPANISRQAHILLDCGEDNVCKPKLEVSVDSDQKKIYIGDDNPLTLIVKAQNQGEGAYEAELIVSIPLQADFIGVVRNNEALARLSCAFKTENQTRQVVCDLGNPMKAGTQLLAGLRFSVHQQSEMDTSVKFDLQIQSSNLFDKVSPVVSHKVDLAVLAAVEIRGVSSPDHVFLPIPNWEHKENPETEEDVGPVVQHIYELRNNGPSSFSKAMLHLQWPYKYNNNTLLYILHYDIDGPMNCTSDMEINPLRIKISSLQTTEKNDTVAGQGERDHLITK
# Chain of integrin αvβ3 (P06756 891-1048 limits assumed): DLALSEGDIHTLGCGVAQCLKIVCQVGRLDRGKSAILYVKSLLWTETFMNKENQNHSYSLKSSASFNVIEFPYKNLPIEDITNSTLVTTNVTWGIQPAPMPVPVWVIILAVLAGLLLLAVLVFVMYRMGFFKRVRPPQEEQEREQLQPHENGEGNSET
# Chain of integrin αvβ3 (P05106 27-788): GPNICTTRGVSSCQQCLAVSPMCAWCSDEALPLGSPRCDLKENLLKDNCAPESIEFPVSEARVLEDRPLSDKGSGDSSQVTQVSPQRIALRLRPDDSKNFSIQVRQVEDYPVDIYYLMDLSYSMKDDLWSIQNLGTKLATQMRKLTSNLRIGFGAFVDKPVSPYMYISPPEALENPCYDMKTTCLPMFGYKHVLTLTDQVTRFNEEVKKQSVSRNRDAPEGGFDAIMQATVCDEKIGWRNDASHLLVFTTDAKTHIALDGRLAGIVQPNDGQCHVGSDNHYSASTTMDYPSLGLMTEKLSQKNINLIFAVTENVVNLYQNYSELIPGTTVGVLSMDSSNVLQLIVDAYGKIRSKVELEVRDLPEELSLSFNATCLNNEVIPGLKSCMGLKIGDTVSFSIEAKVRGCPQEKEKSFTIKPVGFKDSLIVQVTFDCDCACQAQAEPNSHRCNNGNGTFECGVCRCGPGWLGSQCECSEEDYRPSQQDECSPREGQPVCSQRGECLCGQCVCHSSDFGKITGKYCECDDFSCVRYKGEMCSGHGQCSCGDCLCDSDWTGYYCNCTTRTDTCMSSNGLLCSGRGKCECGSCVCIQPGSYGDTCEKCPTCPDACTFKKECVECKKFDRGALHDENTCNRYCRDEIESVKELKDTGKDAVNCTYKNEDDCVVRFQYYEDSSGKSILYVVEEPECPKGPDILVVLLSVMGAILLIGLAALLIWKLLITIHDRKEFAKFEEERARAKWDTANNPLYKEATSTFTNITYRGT
molecule,measurement,setting,value
C#Cc1cccc(Nc2ncnc3cc(OCCOC)c(OCCOC)cc23)c1 [erlotinib],tumor growth,[1],gained resistance
same,expression of integrin αvβ3 in tumors,HCC827 (β3−) xenograft,enriched in the erlotinib-resistant tumors compared to the vehicle group
same,number of CTCs,[2]; erlotinib for 30 days vs pre-treatment,sharp increase in the number of CTCs
same,αvβ3 status of CTCs,[2]; following erlotinib treatment,vast majority of the CTCs detected following erlotinib treatment were αvβ3 positive
same,"number of TAMs, particularly M2 type, in tumors",[3],higher number of TAMs
C=CC(=O)Nc1cc(Nc2nccc(-c3cn(C)c4ccccc34)n2)c(OC)cc1N(C)CCN(C)C [osimertinib],"cell viability (MTT), sensitivity to EGFR inhibitor",PC9 ErlR cells,osimertinib resistant
same,"cell viability, sensitivity to EGFR inhibitor",HCC827-ErlR,also resistant
B1,antibody-dependent cell mediated cytotoxicity (ADCC),integrin αvβ3,reported to mediate antibody-dependent cell mediated cytotoxicity (ADCC) in vitro
same,clinical activity,solid tumors,showed clinical activity in some patients
